Data on two compounds can be found in patent US9290447B2, “(20R) and (20S)-24-(p-toluenesulfonyloxy)-25,26,27-trinorvitamin D3 analogs and their uses” (Wisconsin Alumni Research Foundation, priority 2011, dated 2016).

Data set [1] relates to HL-60 leukemia cells. Description: Cell viability, HL-60 leukemia cells. The format is cell-based, human. The following applies: four days growth, methylene blue; FIG. 4A/4B. The method, then:
(§1) Various cell lines were plated, administered a range of drug concentrations one time, allowed to grow for four days and then the number of cells present counted and expressed as a percentage of those present in the vehicle control plates. […] The number of live cells was expressed as a percentage of the total present. Each assay was done in duplicate.

For data set [2], the system named is vitamin D-deficient rats. Description: Intestinal calcium transport (everted gut sac method). Type of data set: in vivo, rat. The following applies: 4 consecutive ip doses, FIG. 10. The protocol: (§2) Male, weanling Sprague-Dawley rats were placed on Diet 11 (Suda et al, J. Nutr. 100:1049, 1970) (0.47% Ca)+AEK oil for one week followed by Diet 11 (0.02% Ca)+AEK oil for 3 weeks. The rats were then switched to the same diet containing 0.47% Ca for one week followed by two weeks on the same diet containing 0.02% Ca. Dose administration began during the last week on 0.02% calcium diet. Four consecutive intraperitoneal (ip) doses were given approximately 24 hours apart. Twenty-four hours after the last dose, blood was collected from the severed neck and the concentration of serum calcium determined by atomic absorption spectrometry as a measure of bone calcium mobilization. The first 10 cm of the intestine was also collected for intestinal calcium transport analysis using the everted gut sac method.

Data set [3] has as its system 24-hydroxylase (24Ohase) gene promoter. Description: In vitro transcription assay (24-hydroxylase promoter luciferase reporter in ROS 17/2.8 bone cells). Type of data set: cell-based. The note with it: FIG. 3. The protocol: Cells were given a range of doses. Sixteen hours alter dosing the cells were harvested and luciferase activities were measured using a luminometer. RLU=relative luciferase units.

Data set [4] concerns vitamin D-deficient rats. Briefly: Bone calcium mobilization (serum calcium). The following applies: rats on 0.02% Ca diet, FIG. 9. Type of data set: in vivo, rat. The method, then:
as §2

The subject of data set [5] is HL-60 cells. Description: HL-60 differentiation (nitro blue tetrazolium reduction). Type of data set: cell-based, human. The following applies: FIG. 2. The protocol:
The study drugs were dissolved in ethanol and the concentrations determined using UV spectrophotometry. Serial dilutions were prepared so that a range of drug concentrations could be tested without changing the final concentration of ethanol (≦0.2%) present in the cell cultures.
Human promyelocytic leukemia (HL60) cells were grown in RPMI-1640 medium containing 10% fetal bovine serum. The cells were incubated at 37° C. in the presence of 5% CO2.
HL60 cells were plated at 1.2×10^5 cells/ml. Eighteen hours after plating, cells in duplicate were treated with drug. Four days later, the cells were harvested and a nitro blue tetrazolium reduction assay was performed (Collins et al., 1979; J. Exp. Med. 149:969-974). The percentage of differentiated cells was determined by counting a total of 200 cells and recording the number that contained intracellular black-blue formazan deposits. Verification of differentiation to monocytic cells was determined by measuring phagocytic activity (data not shown).

Data set [6] deals with H-82 lung carcinoma cells. Description: Cell viability, H-82 lung carcinoma cells. The format is cell-based. The following applies: four days growth, methylene blue; FIG. 5A/5B. The protocol: as §1
In data set [7] the target is T1, full-length recombinant rat vitamin D receptor (Rattus norvegicus, UniProt P13053).
T1 construct: Full-length recombinant rat receptor was expressed in E. coli; histidine tag (C); made in house; host or cells: E. coli BL21 (DE3) Codon Plus RIL
T1 sequence (P13053 1-423): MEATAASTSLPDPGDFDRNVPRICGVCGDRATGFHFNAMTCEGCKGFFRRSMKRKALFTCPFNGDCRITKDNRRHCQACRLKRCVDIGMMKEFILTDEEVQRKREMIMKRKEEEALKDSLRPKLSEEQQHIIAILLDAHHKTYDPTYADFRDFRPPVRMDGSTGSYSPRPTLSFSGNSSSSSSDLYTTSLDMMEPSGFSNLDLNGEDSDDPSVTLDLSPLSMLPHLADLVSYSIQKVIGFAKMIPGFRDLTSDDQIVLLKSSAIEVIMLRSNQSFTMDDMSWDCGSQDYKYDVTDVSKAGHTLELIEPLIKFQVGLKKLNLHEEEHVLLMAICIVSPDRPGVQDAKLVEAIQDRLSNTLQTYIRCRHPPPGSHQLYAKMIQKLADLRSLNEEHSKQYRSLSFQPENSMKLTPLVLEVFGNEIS
Briefly: Vitamin D receptor competitive binding with [3H]-1,25(OH)2D3. The note with it: compared to 1α,25-dihydroxyvitamin D3; FIG. 1. The protocol:
Full-length recombinant rat receptor was expressed in E. coli BL21 (DE3) Codon Plus RIL cells and purified to homogeneity using two different column chromatography systems. The first system was a nickel affinity resin that utilizes the C-terminal histidine tag on this protein. […] Aliquots of the purified protein were quick frozen in liquid nitrogen and stored at −80° C. until use. For use in binding assays, the protein was diluted in TEDK50 (50 mM Tris, 1.5 mM EDTA, pH7.4, 5 mM DTT, 150 mM KCl) with 0.1% Chaps detergent. The receptor protein and ligand concentration was optimized such that no more than 20% of the added radiolabeled ligand was bound to the receptor.
Radiolabeled and unlabeled ligands were added to 100 mcl of the diluted protein at a final ethanol concentration of ≦10%, mixed and incubated overnight on ice to reach binding equilibrium. The following day, 100 mcl of hydroxylapatite slurry (50%) was added to each tube and mixed at 10-minute intervals for 30 minutes. The hydroxylapaptite was collected by centrifugation and then washed three times with Tris-EDTA buffer (50 mM Tris, 1.5 mM EDTA, pH 7.4) containing 0.5% Titron X-100. […] Total binding was determined from the tubes containing only radiolabeled ligand.

Data set [8] relates to OVCAR3 ovarian cancer cells. Briefly: Cell viability, OVCAR3 ovarian cancer cells. Type of data set: cell-based. The following applies: four days growth, methylene blue; FIG. 8. The protocol:
as §1

Data set [9] concerns DU-145 prostate cancer cells. Briefly: Cell viability, DU-145 prostate cancer cells. Type of data set: cell-based. The following applies: four days growth, methylene blue; FIG. 6. The method, then:
as §1

Data set [10] is described as follows: Change in body weight of dosed animals. Type of data set: in vivo, rat. The following applies: various doses; FIG. 11. The protocol:
as §2

The test system of data set [11] is ROS 17/2.8 bone cancer cells. Description: Cell viability, ROS 17/2.8 bone cancer cells. The format is cell-based. The following applies: four days growth, methylene blue; FIG. 7. The protocol: as §1

What is called EC50 is the concentration giving half of the maximal effect.

Take `C=C1/C(=C\C=C2/CCC[C@]3(C)[C@@H]([C@H](C)CCCC(C)(C)O)CC[C@@H]23)C[C@@H](O)C[C@@H]1O` [1,25(OH)2D3, 1α,25-dihydroxyvitamin D3, reference compound]: the “Viability of HL-60 leukemia cells” value in [1] is reported as “does not have any significant effect on the viability”. Moreover, the “Intestinal calcium transport activity” value in [2] (260 pmol and 780 pmol doses) is given as “significant increase in activity”. Moreover, the EC50 in data set [3] (ROS 17/2.8 cells, 16 h after dosing) came out at 0.1 nM; in [5] (four days after treatment, read-out: EC50, HL-60 cell differentiation), 2 nM. In addition, in [4] (4 consecutive ip doses), the “Bone calcium mobilization (serum calcium)” value is “significant increases in serum calcium”. In addition, in data set [6], the “Viability of H-82 lung carcinoma cells” value is on record as “requires a significantly higher dose”.

As for `C=C1CC[C@H](O)C/C1=C/C=C1\CCC[C@]2(C)[C@@H]([C@H](C)CCCOS(=O)(=O)c3ccc(C)cc3)CC[C@@H]12` [TS-17, (20R)-25,26,27-trinor-24-(p-methylphenylsulfonate)-vitamin D3], the “Viability of HL-60 leukemia cells” value in data set [1] is on record as “kills HL-60 leukemia cells”. In [2] (35,100 pmol/rat), the “Intestinal calcium transport activity” value is recorded as “little to no activity”. Moreover, in [3] (until very high doses are administered), the “Transcriptional activity in bone cells (in words)” value is “lacks any transcriptional activity”. Also, the “VDR binding activity relative to natural hormone (times less active)” value in data set [7] is reported as “at least 100 times less active”. Also, the “Viability of OVCAR3 ovarian cancer cells” value in data set [8] was “does not have any significant effect on the viability”. Moreover, the “Bone calcium mobilization (serum calcium)” value in [4] (35,100 pmol/day for 4 consecutive days, ip) is listed as “little or no mobilization of bone calcium”. For the same compound, the “Viability of DU-145 prostate cells” value in [9] was “does not have any significant effect on the viability”. Also, the “HL-60 cell differentiation (in words)” value in data set [5] was “does not promote HL60 differentiation”. Besides, the “Body weight throughout the test period” value in [10] is on record as “substantially maintain their body weight”. Further, in data set [11], the “Viability of ROS 17/2.8 bone cancer cells” value was “does not have any significant effect on the viability”. Also, in data set [6], the “Viability of H-82 lung carcinoma cells” value is on record as “kills H-82 lung carcinoma cells”.
